The record followed here is patent US12077503B2, “Substituted cyclic amides and their use as herbicides” (FMC CORPORATION, priority 2015, dated 2024).

Like-named read-outs stand apart in the source and are kept apart here.

Common to all, as to assay: Test A preemergence
Type in all cases: in vivo

For experiment [1], the system named is ryegrass, Italian (Italian ryegrass, Lolium multiflorum). The following applies: Lolium multiflorum, pre-emergence, 240 h; for pest or weed control at 125 g/ha: 125 g ai/ha; for pest or weed control at 500 g/ha: 500 g ai/ha. The method in brief:
(§1)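 Ratings of 0 (no effect) to 100 (complete control) come from visual comparison with untreated controls roughly 10 d after treatment. Test chemicals, formulated in a non-phytotoxic solvent mixture with surfactant, were applied either as a preemergence directed soil spray on seeded soil or postemergence to one- to two-leaf plants 2 to 10 cm tall.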

Experiment [2] deals with barnyardgrass (Echinochloa crus-galli). The following applies: Echinochloa crus-galli, pre-emergence, 240 h; for pest or weed control at 125 g/ha: 125 g ai/ha; for pest or weed control at 500 g/ha: 500 g ai/ha. Summed up:
as §1

The next experiment deals with Kochia (Kochia scoparia). The following applies: Bassia scoparia, pre-emergence, 240 h; for pest or weed control at 125 g/ha: 125 g ai/ha; for pest or weed control at 500 g/ha: 500 g ai/ha. Summed up: as §1
The test system of experiment [3] is ragweed (common ragweed, Ambrosia elatior). The following applies: Ambrosia artemisiifolia, pre-emergence, 240 h; for pest or weed control at 125 g/ha: 125 g ai/ha; for pest or weed control at 500 g/ha: 500 g ai/ha. Summed up: as §1
Experiment [4] concerns pigweed (Amaranthus retroflexus). The following applies: Amaranthus retroflexus, pre-emergence, 240 h; for pest or weed control at 125 g/ha: 125 g ai/ha; for pest or weed control at 500 g/ha: 500 g ai/ha.
[5] abbreviates: preemergence, 0 to 100 scale where 0 is no effect and 100 is complete control, read-out: Ryegrass, Italian plant response rating.
Where [6] appears, read: Preemergence, visual injury vs untreated controls after approximately 10 d, read-out: Ryegrass, Italian plant response rating (0 to 100 scale where 0 is no effect and 100 is complete control).
Setting [7] is: preemergence, 0 to 100 scale where 0 is no effect and 100 is complete control, read-out: Barnyardgrass plant response rating.
Setting [8] is: Preemergence, visual injury vs untreated controls after approximately 10 d, read-out: Barnyardgrass plant response rating (0 to 100 scale where 0 is no effect and 100 is complete control).
[9] abbreviates: preemergence, 0 to 100 scale where 0 is no effect and 100 is complete control, read-out: Kochia plant response rating.
The mark [10] stands for this setting: Preemergence, visual injury vs untreated controls after approximately 10 d, read-out: Kochia plant response rating (0 to 100 scale where 0 is no effect and 100 is complete control).
The mark [11] stands for this setting: preemergence, 0 to 100 scale where 0 is no effect and 100 is complete control, read-out: Ragweed plant response rating.
Where [12] appears, read: Preemergence, visual injury vs untreated controls after approximately 10 d, read-out: Ragweed plant response rating (0 to 100 scale where 0 is no effect and 100 is complete control).
Setting [13] is: preemergence, 0 to 100 scale where 0 is no effect and 100 is complete control, read-out: Pigweed plant response rating.
Setting [14] is: Preemergence, visual injury vs untreated controls after approximately 10 d, read-out: Pigweed plant response rating (0 to 100 scale where 0 is no effect and 100 is complete control).
Where [15] appears, read: preemergence, visual injury rating about 10 d after treatment, 0 to 100 scale (0 no effect, 100 complete control), read-out: Ryegrass, Italian plant response rating.
[16] abbreviates: preemergence, visual injury rating about 10 d after treatment, 0 to 100 scale (0 no effect, 100 complete control), read-out: Barnyardgrass plant response rating.
Where [17] appears, read: preemergence, visual injury rating about 10 d after treatment, 0 to 100 scale (0 no effect, 100 complete control), read-out: Kochia plant response rating.
Setting [18] is: preemergence, visual injury rating about 10 d after treatment, 0 to 100 scale (0 no effect, 100 complete control), read-out: Ragweed plant response rating.
Where [19] appears, read: preemergence, visual injury rating about 10 d after treatment, 0 to 100 scale (0 no effect, 100 complete control), read-out: Pigweed plant response rating.
Setting [20] is: Preemergence, visual injury rating after approximately 10 d, read-out: Ryegrass, Italian plant response rating (0 to 100 scale, 0 is no effect, 100 is complete control).
Setting [21] is: Preemergence, visual injury rating after approximately 10 d, read-out: Barnyardgrass plant response rating (0 to 100 scale, 0 is no effect, 100 is complete control).
[22] abbreviates: Preemergence, visual injury rating after approximately 10 d, read-out: Kochia plant response rating (0 to 100 scale, 0 is no effect, 100 is complete control).
Where [23] appears, read: Preemergence, visual injury rating after approximately 10 d, read-out: Ragweed plant response rating (0 to 100 scale, 0 is no effect, 100 is complete control).
The mark [24] stands for this setting: Preemergence, visual injury rating after approximately 10 d, read-out: Pigweed plant response rating (0 to 100 scale, 0 is no effect, 100 is complete control).

In the case of `Cc1cc(C)cc([C@H]2CN(C)C(=O)[C@@H]2C(=O)Nc2ccccc2F)c1` [Compound 910], the pest or weed control at 125 g/ha in experiment [1] (setting [5]) came to 50%; in experiment [2] (setting [7]), 90%; in the experiment on Kochia (Kochia scoparia) (setting [9]) it was 60%; in experiment [3] (setting [11]), 0%; in experiment [4] (setting [13]) it was 0%. For the same compound, the pest or weed control at 500 g/ha in experiment [1] (setting [6]) came out at 60%; in experiment [2] (setting [8]), 100%; in the experiment on Kochia (Kochia scoparia) (setting [10]), 90%; in experiment [3] (setting [12]) it was 0%; in experiment [4] (setting [14]) it was 30%.

For `Cc1cc(C)cc([C@H]2CN(C)C(=O)[C@@H]2C(=O)Nc2ccccc2C(F)(F)F)c1` [Compound 912], the pest or weed control at 125 g/ha in experiment [1] (setting [5]) was 40%; in experiment [2] (setting [7]), 80%; with Kochia (Kochia scoparia) (setting [9]) it was 60%; in experiment [3] (setting [11]) it was 0%; in experiment [4] (setting [13]), 0%. The pest or weed control at 500 g/ha in experiment [1] (setting [6]) is 50%; in experiment [2] (setting [8]), 90%; in the experiment with Kochia (Kochia scoparia) (setting [10]) it was 70%; in experiment [3] (setting [12]), 0%; in experiment [4] (setting [14]), 0%.

With `CN1CC[C@H](c2ccc(F)cc2)[C@@H](C(=O)Nc2ccccc2F)C1=O` [Compound 917], the pest or weed control at 125 g/ha in experiment [1] (setting [5]) is 0%; in experiment [2] (setting [7]), 20%; with Kochia (Kochia scoparia) (setting [9]), 0%; in experiment [3] (setting [11]), 0%; in experiment [4] (setting [13]), 0%. The pest or weed control at 500 g/ha in experiment [1] (setting [6]) was 0%; in experiment [2] (setting [8]) it was 80%; with Kochia (Kochia scoparia) (setting [10]), 0%; in experiment [3] (setting [12]), 0%; in experiment [4] (setting [14]), 0%.

For the compound `COc1ccc(CN2CC[C@H](c3ccc(F)cc3)[C@@H](C(=O)Nc3cccc(F)c3F)C2=O)cc1` [Compound 919], the pest or weed control at 125 g/ha (in experiment [1] (setting [5]); in experiment [2] (setting [7]); in the experiment with Kochia (Kochia scoparia) (setting [9]); in experiment [3] (setting [11]); in experiment [4] (setting [13])) was 0% each time. In addition, the pest or weed control at 500 g/ha (in experiment [1] (setting [6]); in experiment [2] (setting [8]); in the experiment on Kochia (Kochia scoparia) (setting [10]); in experiment [3] (setting [12]); in experiment [4] (setting [14])) was 0% each time.

With `O=C(Nc1cccc(F)c1F)[C@H]1C(=O)N(C2CC2)CC[C@@H]1c1cccc(C(F)(F)F)c1` [Compound 925], the pest or weed control at 125 g/ha in experiment [1] (setting [5]) turned out to be 30%; in experiment [2] (setting [7]), 30%; in the experiment with Kochia (Kochia scoparia) (setting [9]), 0%; in experiment [3] (setting [11]) it was 0%; in experiment [4] (setting [13]), 0%. Further, the pest or weed control at 500 g/ha is 30% in experiment [1] (setting [6]); 90% in experiment [2] (setting [8]); 0% with Kochia (Kochia scoparia) (setting [10]); 0% in experiment [3] (setting [12]); 0% in experiment [4] (setting [14]).

In the case of `Cc1cc([C@H]2CN(C)C(=O)[C@@H]2C(=O)Nc2cccc(F)c2F)ccc1Cl` [Compound 929], the pest or weed control at 500 g/ha was 80% in experiment [1] (setting [15]); 90% in experiment [2] (setting [16]); 90% with Kochia (Kochia scoparia) (setting [17]); 30% in experiment [3] (setting [18]); 50% in experiment [4] (setting [19]). The pest or weed control at 125 g/ha stood at 90% in experiment [2] (setting [7]), 70% in the experiment with Kochia (Kochia scoparia) (setting [9]) and 20% in experiment [4] (setting [13]).

For `Cc1cc([C@H]2CN(C)C(=O)[C@@H]2C(=O)Nc2ccc(F)c(F)c2F)ccc1Cl` [Compound 931], the pest or weed control at 500 g/ha came to 70% in experiment [1] (setting [15]); 90% in experiment [2] (setting [16]); 90% in the experiment with Kochia (Kochia scoparia) (setting [17]); 30% in experiment [3] (setting [18]); 40% in experiment [4] (setting [19]). In addition, the values for the pest or weed control at 125 g/ha (in experiment [2] (setting [7]); in the experiment with Kochia (Kochia scoparia) (setting [9]); in experiment [4] (setting [13])) were 90%, 90% and 30%, respectively.

With `Cc1cc([C@H]2CN(C)C(=O)[C@@H]2C(=O)Nc2ccccc2C(F)(F)F)ccc1Cl` [Compound 932], the pest or weed control at 500 g/ha in experiment [1] (setting [15]) came out at 60%; in experiment [2] (setting [16]) it was 90%; with Kochia (Kochia scoparia) (setting [17]), 70%; in experiment [3] (setting [18]) it was 30%; in experiment [4] (setting [19]) it was 30%. In addition, the results for the pest or weed control at 125 g/ha (in experiment [2] (setting [7]); in the experiment on Kochia (Kochia scoparia) (setting [9]); in experiment [4] (setting [13])) were 90%, 40% and 0%, respectively.

As for `CC(C)COc1cccc([C@H]2CN(C)C(=O)[C@@H]2C(=O)Nc2ccccc2F)c1` [Compound 1028], the pest or weed control at 125 g/ha stood at 30% in experiment [1] (setting [20]); 90% in experiment [2] (setting [21]); 0% with Kochia (Kochia scoparia) (setting [22]); 0% in experiment [3] (setting [23]); 0% in experiment [4] (setting [24]). The pest or weed control at 500 g/ha was determined as 30% in experiment [1] (setting [15]), 90% in experiment [2] (setting [16]), 60% in the experiment on Kochia (Kochia scoparia) (setting [17]) and 0% in experiment [4] (setting [19]).

With `CC(C)COc1cccc([C@H]2CN(C)C(=O)[C@@H]2C(=O)Nc2cccc(F)c2F)c1` [Compound 1029], the pest or weed control at 125 g/ha in experiment [1] (setting [20]) amounted to 70%; in experiment [2] (setting [21]) it was 90%; in the experiment on Kochia (Kochia scoparia) (setting [22]), 0%; in experiment [3] (setting [23]) it was 0%; in experiment [4] (setting [24]), 0%. Moreover, the pest or weed control at 500 g/ha was found to be 90% in experiment [1] (setting [15]); 90% in experiment [2] (setting [16]); 90% with Kochia (Kochia scoparia) (setting [17]); 0% in experiment [3] (setting [18]); 0% in experiment [4] (setting [19]).

Regarding `Cc1ccc([C@H]2CNC(=O)[C@@H]2C(=O)Nc2ccccc2S(C)(=O)=O)cc1C` [Compound 1037], the pest or weed control at 125 g/ha is 50% in experiment [1] (setting [20]); 80% in experiment [2] (setting [21]); 40% in the experiment with Kochia (Kochia scoparia) (setting [22]); 0% in experiment [3] (setting [23]); 0% in experiment [4] (setting [24]). Besides, the pest or weed control at 500 g/ha in experiment [1] (setting [15]) was determined as 70%; in experiment [2] (setting [16]), 90%; in the experiment on Kochia (Kochia scoparia) (setting [17]), 90%; in experiment [3] (setting [18]) it was 60%; in experiment [4] (setting [19]), 20%.
